From US7776904B2, “Azabicyclo [3.1.0] hexylphenyl derivatives as modulators of dopamine D3 receptors” (Glaxo Group Limited, priority 2005, dated 2010)

Molecular target: T1, dopamine D3 receptor (Homo sapiens, UniProt P35462)
T1 construct: expressed in transfected cells; membranes prepared from them
Assay: GTPγS scintillation proximity assay (GTPγS-SPA), CHO_D3 cell membranes
Assay type: biochemical
Conditions: Enantiomer 2 compared with Enantiomer 1 of Example 1
Procedure: Functional potency and intrinsic activity of compounds of this invention can be measured by the following GTPγS scintillation proximity assay (GTPγS-SPA). Cells used in the study are Chinese Hamster Ovary (CHO) Cells.
Compounds may be tested according to two alternative protocols:
a) Cell membranes are prepared as follows. Cell pellets are resuspended in 10 volumes of 50 mM HEPES, 1 mM EDTA pH 7.4, using KOH. On the day the following proteases are added to the buffer just prior to giving the homogenisation buffer.
The cells are homogenised by 2×15 second bursts in a 1 litre Glass Waring blender in a class two biohazard cabinet. The resulting suspension is spun at 500 g for 20 mins (Beckman T21 centrifuge: 1550 rpm). The supernatant is withdrawn with a 25 ml pipette, aliquotted into pre-chilled centrifuge tubes and spun at 48,000 g to pellet membrane fragments (Beckman T1270: 23,000 rpm for 30 mins). The final 48,000 g pellet is resuspended in Homogenisation Buffer, (4× the volume of the original cell pellet). […] Protein content in the membrane preparations is evaluated with the Bradford protein assay.
The final top concentration of test drug is 3 uM in the assay and 11 points serial dilution curves 1:4 in 100% DMSO are carried out using a Biomek FX. […] Assay plates are counted on a Viewlux, 613/55 filter, for 5 min., between 2-6 hours after the final addition. […]

T1 sequence (P35462 whole entry, species assumed): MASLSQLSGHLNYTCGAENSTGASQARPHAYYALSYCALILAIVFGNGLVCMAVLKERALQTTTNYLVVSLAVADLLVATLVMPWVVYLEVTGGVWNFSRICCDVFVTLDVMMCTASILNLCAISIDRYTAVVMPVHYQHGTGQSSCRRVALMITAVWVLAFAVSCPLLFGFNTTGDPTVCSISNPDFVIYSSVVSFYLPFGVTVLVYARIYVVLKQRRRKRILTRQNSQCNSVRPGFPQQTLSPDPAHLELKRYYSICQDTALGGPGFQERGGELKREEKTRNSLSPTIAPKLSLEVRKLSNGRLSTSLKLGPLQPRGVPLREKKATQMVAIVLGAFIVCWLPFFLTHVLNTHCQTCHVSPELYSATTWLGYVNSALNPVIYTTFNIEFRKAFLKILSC

SMILES: CC(C)c1ccc(S(=O)(=O)Nc2ccc(C34CNCC3C4)cc2)cc1.Cl (single isomer, unassigned; enantiomer 2) [Enantiomer 2, N-{4-[(1R,5R or 1S,5R)-3-azabicyclo[3.1.0]hex-1-yl]phenyl}-4-(1-methylethyl)benzenesulfonamide hydrochloride]
- fpki (D3) difference, higher than Enantiomer 1: > 1 log-unit
